These are literature values, as cited in patent publication US20070248684A1, “Pharmaceutical formulations of oxcarbazepine and methods for its preparation” (priority 2006, published 2007).

For the data set the following is noted: in words.

The structures appear in SMILES notation.

On to `NC(=O)N1c2ccccc2CC(=O)c2ccccc21` [Oxcarbazepine, 10-oxo-10,11-dihydro-5H-dibenz[b,f]azepine-5-carboxamide], for which the solubility in water result was “practically insoluble”.
